Patent publication US20240287070A1, “FUSED HETEROCYCLIC DERIVATIVES” (Janssen Sciences Ireland Unlimited Company, priority 2021, published 2024)

Assays:
[1] = Human liver microsome stability; assay type: in vitro ADME; conditions: pooled human liver microsomes 0.5 mg/mL, 1 μM compound, NADPH 1 mM, 37° C., 0-60 min
In short: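 Single incubations with human liver microsomes started with 1 mM NADPH; samples taken at 0, 5, 10, 20, 40 and 60 min, quenched in acetonitrile (1:3). Cassette LC-MS analysis with internal standard; t½ derived from slope of ln peak-area ratio versus time (k = −gradient).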

[2] = test system: HBV (HepG2.117 cell line, inducibly HBV producing); test: Anti-HBV activity, intracellular HBV DNA by real-time PCR in HepG2.117 cell line; assay type: cell-based, hepatitis B virus; conditions: HepG2.117 cells, 3 days of treatment
In short: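 Inducible HBV-producing HepG2.117 line (Tet-off); 3-day exposure to serially diluted compound after induction; real-time PCR of intracellular viral DNA.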

HepG2 or HepG2.117 cells = test: Cytotoxicity, ATPlite Luminescence Assay; assay type: cell-based, human; conditions: 3-days incubation unless marked with *
In short: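 Viability after compound treatment is read as ATP luminescence. Exposure lasts 3 or 4 days.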

For CC(c1ccnc(OC(F)F)c1)N1C[C@@H](C)n2nc3c(c2C1=O)CN(C(=O)c1ccc(Cl)c(C(F)(F)F)c1)[C@H](C)C3 (single isomer, unassigned) [Compound 50B, (3R,7R)-2-(4-chloro-3-(trifluoromethyl)benzoyl)-9-((S*)-1-(2-(difluoromethoxy)pyridin-4-yl)ethyl)-3,7-dimethyl-1,2,3,4,8,9-hexahydropyrido[4′,3′:3,4]pyrazolo[1,5-a]pyrazin-10(7H)-one], the “HLM Metabolism t1/2” value [1] was >3 h, the EC50 [2] was 0.024 µM and the CC50 (HepG2 or HepG2.117 cells) was 10.2 µM.

For CC(c1ccn(CC(F)(F)F)c(=O)c1)N1C[C@@H](C)n2nc3c(c2C1=O)CN(C(=O)c1ccc(Cl)c(Cl)c1)[C@H](C)C3 (single isomer, unassigned) [Compound 51B, (3R,7R)-2-(3,4-dichlorobenzoyl)-3,7-dimethyl-9-((S*)-1-(2-oxo-1-(2,2,2-trifluoroethyl)-1,2-dihydropyridin-4-yl)ethyl)-1,2,3,4,8,9-hexahydropyrido[4′,3′:3,4]pyrazolo[1,5-a]pyrazin-10(7H)-one], the “HLM Metabolism t1/2” value [1] was >3 h, the EC50 [2] was 0.028 µM and the CC50 (HepG2 or HepG2.117 cells) was > 50 µM.

For CC(c1cnn(C)c(=O)c1)N1C[C@@H](C)n2nc3c(c2C1=O)CN(C(=O)c1ccc(Cl)c(C(F)(F)F)c1)[C@H](C)C3 (single isomer, unassigned) [Compound 52B, (3R,7R)-2-(4-chloro-3-(trifluoromethyl)benzoyl)-3,7-dimethyl-9-((S*)-1-(1-methyl-6-oxo-1,6-dihydropyridazin-4-yl)ethyl)-1,2,3,4,8,9-hexahydropyrido [4′,3′:3,4]pyrazolo[1,5-a]pyrazin-10(7H)-one], the “HLM Metabolism t1/2” value [1] was >3 h, the EC50 [2] was 0.016 µM and the CC50 (HepG2 or HepG2.117 cells) was > 50 µM.

For CC(c1cnn(C(C)C)c(=O)c1)N1C[C@@H](C)n2nc3c(c2C1=O)CN(C(=O)c1ccc(Cl)c(C(F)(F)F)c1)[C@H](C)C3 (single isomer, unassigned) [Compound 53B, (3R,7R)-2-(4-chloro-3-(trifluoromethyl)benzoyl)-9-((S*)-1-(1-isopropyl-6-oxo-1,6-dihydropyridazin-4-yl)ethyl)-3,7-dimethyl-1,2,3,4,8,9-hexahydropyrido[4′,3′:3,4]pyrazolo[1,5-a]pyrazin-10(7H)-one], the “HLM Metabolism t1/2” value [1] was 1.18 h, the EC50 [2] was 0.01 µM and the CC50 (HepG2 or HepG2.117 cells) was > 50 µM.

For CC(c1cnn(C2CC2)c(=O)c1)N1C[C@@H](C)n2nc3c(c2C1=O)CN(C(=O)c1ccc(Cl)c(C(F)(F)F)c1)[C@H](C)C3 (single isomer, unassigned) [Compound 54B, (3R,7R)-2-(4-chloro-3-(trifluoromethyl)benzoyl)-9-((S*)-1-(1-cyclopropyl-6-oxo-1,6-dihydropyridazin-4-yl)ethyl)-3,7-dimethyl-1,2,3,4,8,9-hexahydropyrido[4′,3′: 3,4]pyrazolo[1,5-a]pyrazin-10(7H)-one], the “HLM Metabolism t1/2” value [1] was 1.95 h, the EC50 [2] was 0.01 µM and the CC50 (HepG2 or HepG2.117 cells) was > 50 µM.

With CC(c1ccc(=O)n(C)n1)N1C[C@@H](C)n2nc3c(c2C1=O)CN(C(=O)c1ccc(Cl)c(Cl)c1)[C@H](C)C3 (single isomer, unassigned) [Compound 55B, (3R,7R)-2-(3,4-dichlorobenzoyl)-3,7-dimethyl-9-((S*)-1-(1-methyl-6-oxo-1,6-dihydropyridazin-3-yl)ethyl)-1,2,3,4,8,9-hexahydropyrido[4′,3′:3,4]pyrazolo[1,5-a]pyrazin-10(7H)-one] the “HLM Metabolism t1/2” value [1] was >3 h, the EC50 [2] was 0.06 µM and the CC50 (HepG2 or HepG2.117 cells) was > 50 µM.

With CC(c1cn(C2CC2)c(=O)cn1)N1C[C@@H](C)n2nc3c(c2C1=O)CN(C(=O)c1ccc(Cl)c(Cl)c1)[C@H](C)C3 (single isomer, unassigned) [Compound 56B, (3R,7R)-9-((S*)-1-(4-cyclopropyl-5-oxo-4,5-dihydropyrazin-2-yl)ethyl)-2-(3,4-dichlorobenzoyl)-3,7-dimethyl-1,2,3,4,8,9-hexahydropyrido[4′,3′:3,4]pyrazolo[1,5-a]pyrazin-10(7H)-one] the “HLM Metabolism t1/2” value [1] was 1.53 h, the EC50 [2] was 0.084 µM and the CC50 (HepG2 or HepG2.117 cells) was > 50 µM.

For CC(c1ccc(C(C)(C)O)nc1)N1C[C@@H](C)n2nc3c(c2C1=O)CN(C(=O)c1cc(Cl)c(Cl)cn1)[C@H](C)C3 (single isomer, unassigned) [Compound 57B, (3R,7R)-2-(4,5-dichloropicolinoyl)-9-((S*)-1-(6-(2-hydroxypropan-2-yl)pyridin-3-yl)ethyl)-3,7-dimethyl-1,2,3,4,8,9-hexahydropyrido[4′,3′:3,4]pyrazolo[1,5-a]pyrazin-10(7H)-one], the “HLM Metabolism t1/2” value [1] was 1.68 h, the EC50 [2] was 0.65 µM and the CC50 (HepG2 or HepG2.117 cells) was > 50 µM.

With CC(c1ccc(C(C)(C)O)nc1)N1C[C@@H](C)n2nc3c(c2C1=O)CN(C(=O)c1cc(C(F)(F)F)c(Cl)cn1)[C@H](C)C3 (single isomer, unassigned) [Compound 58B, (3R,7R)-2-(5-chloro-4-(trifluoromethyl)picolinoyl)-9-((S*)-1-(6-(2-hydroxypropan-2-yl)pyridin-3-yl)ethyl)-3,7-dimethyl-1,2,3,4,8,9-hexahydropyrido[4′,3′:3,4]pyrazolo[1,5-a]pyrazin-10(7H)-one] the “HLM Metabolism t1/2” value [1] was >3 h, the EC50 [2] was 0.19 µM and the CC50 (HepG2 or HepG2.117 cells) was > 50 µM.

For CC(c1ccc(C(C)(C)O)nc1)N1C[C@@H](C)n2nc3c(c2C1=O)CN(C(=O)c1ccc(Cl)c(F)c1)[C@H](C)C3 (single isomer, unassigned) [Compound 59B, (3R,7R)-2-(4-chloro-3-fluorobenzoyl)-9-((S*)-1-(6-(2-hydroxypropan-2-yl)pyridin-3-yl)ethyl)-3,7-dimethyl-1,2,3,4,8,9-hexahydropyrido[4′,3′:3,4]pyrazolo[1,5-a]pyrazin-10(7H)-one], the “HLM Metabolism t1/2” value [1] was >3 h, the EC50 [2] was 0.055 µM and the CC50 (HepG2 or HepG2.117 cells) was > 50 µM.

With CC(c1ccc(C(C)(C)O)nc1)N1C[C@@H](C)n2nc3c(c2C1=O)CN(C(=O)c1cc(F)c(Cl)c(F)c1)[C@H](C)C3 (single isomer, unassigned) [Compound 60B, (3R,7R)-2-(4-chloro-3,5-difluorobenzoyl)-9-((S*)-1-(6-(2-hydroxypropan-2-yl)pyridin-3-yl)ethyl)-3,7-dimethyl-1,2,3,4,8,9-hexahydropyrido[4′,3′:3,4]pyrazolo[1,5-a]pyrazin-10(7H)-one] the “HLM Metabolism t1/2” value [1] was >3 h, the EC50 [2] was 0.052 µM and the CC50 (HepG2 or HepG2.117 cells) was > 50 µM.

For CC(c1ccc(C(C)(C)O)nc1)N1C[C@@H](C)n2nc3c(c2C1=O)CN(C(=O)c1ccc(Cl)c(F)c1F)[C@H](C)C3 (single isomer, unassigned) [Compound 61B, (3R,7R)-2-(4-chloro-2,3-difluorobenzoyl)-9-((S*)-1-(6-(2-hydroxypropan-2-yl)pyridin-3-yl)ethyl)-3,7-dimethyl-1,2,3,4,8,9-hexahydropyrido[4′,3′:3,4]pyrazolo[1,5-a]pyrazin-10(7H)-one], the “HLM Metabolism t1/2” value [1] was 2.25 h, the EC50 [2] was 0.3 µM and the CC50 (HepG2 or HepG2.117 cells) was > 50 µM.

For CC(c1ccc(C(C)(C)O)nc1)N1C[C@@H](C)n2nc3c(c2C1=O)CN(C(=O)c1ccc(Cl)c(C(F)(F)F)n1)[C@H](C)C3 (single isomer, unassigned) [Compound 62B, (3R,7R)-2-(5-chloro-6-(trifluoromethyl)picolinoyl)-9-((S*)-1-(6-(2-hydroxypropan-2-yl)pyridin-3-yl)ethyl)-3,7-dimethyl-1,2,3,4,8,9-hexahydropyrido[4′,3′:3,4]pyrazolo[1,5-a]pyrazin-10(7H)-one], the “HLM Metabolism t1/2” value [1] was 2.07 h, the EC50 [2] was 0.068 µM and the CC50 (HepG2 or HepG2.117 cells) was > 50 µM.

With CC(c1ccc(C(C)(C)O)nc1)N1C[C@@H](C)n2nc3c(c2C1=O)CN(C(=O)c1ccc(Cl)c(C#N)c1)[C@H](C)C3 (single isomer, unassigned) [Compound 63B, 2-chloro-5-((3R,7R)-9-((S*)-1-(6-(2-hydroxypropan-2-yl)pyridin-3-yl)ethyl)-3,7-dimethyl-10-oxo-1,2,3,4,7,8,9,10-octahydropyrido[4′,3′:3,4]pyrazolo[1,5-a]pyrazine-2-carbonyl)benzonitrile] the “HLM Metabolism t1/2” value [1] was >3 h, the EC50 [2] was 0.052 µM and the CC50 (HepG2 or HepG2.117 cells) was > 50 µM.

With CC(c1ccn(CC(C)(C)O)c(=O)c1)N1C[C@@H](C)n2nc3c(c2C1=O)CN(C(=O)c1ccc(Cl)c(C(F)(F)F)c1)[C@H](C)C3 (single isomer, unassigned) [Compound 64B, (3R,7R)-2-(4-chloro-3-(trifluoromethyl)benzoyl)-9-((S*)-1-(1-(2-hydroxy-2-methylpropyl)-2-oxo-1,2-dihydropyridin-4-yl)ethyl)-3,7-dimethyl-1,2,3,4,8,9-hexahydropyrido[4′,3′:3,4]pyrazolo[1,5-a]pyrazin-10(7H)-one] the “HLM Metabolism t1/2” value [1] was >3 h, the EC50 [2] was 0.085 µM and the CC50 (HepG2 or HepG2.117 cells) was > 50 µM.

With CC(c1ccccn1)N1C[C@@H](C)n2nc3c(c2C1=O)CN(C(=O)c1ccc(Cl)c(Cl)c1)[C@H](C)C3 (single isomer, unassigned) [Compound 65B, (3R,7R)-2-(3,4-dichlorobenzoyl)-3,7-dimethyl-9-((S*)-1-(pyridin-2-yl)ethyl)-1,2,3,4,8,9-hexahydropyrido[4′,3′:3,4]pyrazolo[1,5-a]pyrazin-10(7H)-one] the “HLM Metabolism t1/2” value [1] was 2.02 h, the EC50 [2] was 0.046 µM and the CC50 (HepG2 or HepG2.117 cells) was > 50 µM.

For CC(c1ccc(C#N)cc1)N1C[C@@H](C)n2nc3c(c2C1=O)CN(C(=O)c1ccc(Cl)c(Cl)c1)[C@H](C)C3 (single isomer, unassigned) [Compound 66B, 4-((S*)-1-((3R,7R)-2-(3,4-dichlorobenzoyl)-3,7-dimethyl-10-oxo-1,3,4,7,8,10-hexahydropyrido[4′,3′:3,4]pyrazolo[1,5-a]pyrazin-9(2H)-yl)ethyl)benzonitrile], the “HLM Metabolism t1/2” value [1] was >3 h, the EC50 [2] was 0.017 µM and the CC50 (HepG2 or HepG2.117 cells) was 19.1 µM.
